Read-outs that look alike come from different tables or passages of the source.
Experiments:
[1] = tested on: oil/gas field-isolated sulfate reducing bacteria (SRB); assay: Biocidal activity against oil/gas field-isolated sulfate reducing bacteria under anaerobic environment in deaerated salt solution; format: cell-based
Experimental: (§1) A sterile 0.85% NaCl solution is contaminated with bacterial inoculums at final bacterial concentrations of ˜10^7 CFU/mL. At day zero, either oxazolidine compound (BIOBAN™ CS-1135, 78% 4,4-dimethyloxazolidine in water, The Dow Chemical Company, or BIOBAN™ CS-1246, 97.5% 7-ethylbicyclooxazolidine in water, The Dow Chemical Company), THPS (AQUCAR™ THPS 75, 75% THPS in water, The Dow Chemical Company), or a combination of oxazolidine compound and THPS is added and the solution mixed well to provide a desired final concentration. […]
The protocol used to test against oil/gas field-isolated sulfate reducing bacteria (SRB) is performed as described above, but under anaerobic environment (Bactron III anaerobic chamber) and using a deaerated sterile salt solution (1.2490 g NaCl, 2.9290 g NaHCO3, 0.1910 g Na2CO3, 0.0060 g Na2SO4, 0.033 g CaCl2, and 0.0590 g MgCl2.6H2O in 1 L water) instead of 0.85% NaCl solution.
(§2) The testing protocol described in Example 1 is used for aerobic bacteria and anaerobic sulfate reducing bacteria.

[2] = tested on: Staphylococcus aureus ATCC 6538, Klebsiella pneumoniae ATCC 8308, Bacillus subtillus ATCC 8473, Escherichia coli ATCC 11229; assay: Biocidal activity against standard aerobic bacterial strains in 0.85% NaCl solution, live count by serial dilution; format: cell-based; conditions: biocide alone; average for four standard aerobic bacteria; ~10^7 CFU/mL, 37° C.
Experimental: as §1
The testing protocol described above is used for the standard bacterial strains Staphylococcus aureus ATCC 6538, Klebsiella pneumoniae ATCC 8308, Bacillus subtillus ATCC 8473, Escherichia coli ATCC 11229.
as §2

[3] = biocide alone, field anaerobic SRB, anaerobic chamber

Compound	Concentration required to achieve at least 3 log bacterial reduction in 1 hr [1, 3]	Concentration required to achieve at least 3 log bacterial reduction in 1 hr [2]	Concentration required to achieve at least 3 log bacterial reduction in 1 hr [1]
CCC12COCN1COC2 [7-ethylbicyclooxazolidine, 5-ethyl-1-aza-3,7-dioxabicyclo[3.3.0]octane]	>1000 ppm, active	272.04 ppm, active	
tetrakis(hydroxymethyl)phosphonium sulfate [THPS]		44.49 ppm, active	33.35 ppm, active
CC1(C)COCN1 [4,4-dimethyloxazolidine]	1000 ppm, active	272.04 ppm, active	

— patent publication US9139796B2, “Methods of and formulations for reducing and inhibiting the growth of the concentration of microbes in water-based fluids and systems used with them” (Dow Global Technologies LLC, priority 2007, dated 2015)
